Source: ChEMBL document CHEMBL1141706 (Bioorg Med Chem Lett, 2008)

The compounds below were run against 5-hydroxytryptamine receptor 2A (Homo sapiens, UniProt P28223) (assay: Displacement of [3H]ketanserin from human 5HT2A receptor).
5-hydroxytryptamine receptor 2A, sequence (P28223 whole entry): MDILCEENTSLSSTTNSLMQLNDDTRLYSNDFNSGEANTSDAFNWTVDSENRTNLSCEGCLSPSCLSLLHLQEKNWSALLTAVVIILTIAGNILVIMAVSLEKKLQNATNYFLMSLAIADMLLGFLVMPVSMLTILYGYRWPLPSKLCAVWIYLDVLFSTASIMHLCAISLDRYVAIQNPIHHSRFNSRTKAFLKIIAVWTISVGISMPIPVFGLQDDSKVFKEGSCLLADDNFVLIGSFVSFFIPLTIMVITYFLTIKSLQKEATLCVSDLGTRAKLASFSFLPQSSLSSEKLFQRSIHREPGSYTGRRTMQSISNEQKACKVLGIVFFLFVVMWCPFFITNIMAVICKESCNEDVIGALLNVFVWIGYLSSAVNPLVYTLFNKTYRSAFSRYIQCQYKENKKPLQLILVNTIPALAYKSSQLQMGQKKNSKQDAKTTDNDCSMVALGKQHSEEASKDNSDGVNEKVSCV

Going from `COc1cccc2c1Cc1ccccc1C2CN` (centres undefined) to `COc1cccc2c1C(CN)c1ccccc1C2` (centres undefined), the Ki rises from 124 nM to 1160 nM (9.4-fold).

Compared with `COc1ccc2c(c1)C(CN)c1ccccc1C2` (centres undefined), `COc1ccc2c(c1)Cc1ccccc1C2CN` (centres undefined) is 180-fold lower in Ki: 1370 nM for the first, 7.5 nM for the second. The second binds more tightly here.
